Assay results published in paper PMC12441834, “Highly Potent and Subtype-Selective Sperm-Specific Potassium Channel SLO3 Inhibitors Display High Tissue Exposure in the Murine Female Reproductive Tract” (ACS Pharmacology & Translational Science, 2025).
Read-outs that look alike come from different tables or passages of the source.

Columns and labels:
Kinetic solubility = type: physicochemical; details: aqueous buffer, kinetic from dmso stock; pH 2.2; pH 6.8; read-out: Kinetic Solubility (pH 2.2; pH6.8)
[1] = Intrinsic clearance in liver microsomes; type: in vitro ADME, human; details: for Human CLhep, % Hepatic blood flow: human liver microsomes; for CLhep predicted at 1 μM: human, liver microsomes, pH 7.4, human liver microsomes, read-out: Human CLhep (in vitro hepatic clearance from microsomal CLint)
Procedure: (§1) The in vitro intrinsic clearance (CLint) was investigated in commercially obtained hepatic microsomes from mouse, rat, and human donors using the substrate depletion (i.e., loss-of-parent vs time, or half-life (t 1/2) method) approach with analyte detection via liquid chromatography–tandem mass spectrometry (LC-MS/MS). For each species, mean %parent remaining values at each time point were calculated from replicate raw data (analyte:IS peak area ratios) and used to determine in vitro t 1/2 and CLint.
(§2) Experiments were carried out by using a robot-assisted liquid handler (Bravo with BenchCell, Agilent). The compound was incubated (1 μM final concentration) in buffer (100 mM potassium phosphate pH 7.4 with 3 mM MgCl2) containing hepatic microsomes (0.5 mg/mL final concentration) from each species, discretely, at 37 °C under constant orbital shaking. After 5 min (preincubation), reactions were initiated by the addition of nicotinamide adenine dinucleotide phosphate (NADPH, 1 mM final concentration). At selected time intervals (0, 3, 7, 15, 25, and 45 min) postaddition of NADPH, aliquots (50 μL) were taken and placed into a 96-shallow-well plate containing ice-cold acetonitrile (150 μL) with carbamazepine (IS, 50 nM). The plates were then centrifuged (3000 rcf at 4 °C) for 10 min. The supernatants were transferred to a new 96-shallow-well daughter plate and diluted (1:1 v/v) with water (Milli-Q filtered). The plates were then sealed for preparation for LC-MS/MS analysis (see below).
(§3) Analyte:IS peak area ratios generated by LC-MS/MS were used to construct natural log-transformed %parent remaining vs time plots (using t = 0 min post-NADPH addition sample data as the starting point set to 100%). In vitro compound t 1/2 values were calculated by using the following equation: t1/2=ln(2)/k where k is the slope from the linear regression analysis of the natural log-transformed data (using means from all replicates at each time point). Resulting t 1/2 values were then used to calculate hepatic CLint values according to the following equation and with the use of species-specific scale-up factors for liver weight (grams) per total body weight (kg): CLint=0.693/invitrot1/2×1mLincubation/0.5mgmicrosomes×45mgmicrosomes/1gramliver×garamliver/kgbodywt
(§4) ^aScale-up factors used are 45 (rat) and 20 (human).
(§5) Predicted hepatic clearance (CLhep) was calculated by using the following equation: CLhep=Qh×CLint/Qh+CLint
(§6) Q h represents hepatic blood flow (mL/min/kg): 21 for humans, 70 for rats, and 90 for mouse.

[2] = Intrinsic clearance in liver microsomes; type: in vitro ADME, rat; details: for Rat CLhep, % Hepatic blood flow: rat liver microsomes; for CLhep predicted at 1 μM: rat, liver microsomes, pH 7.4, rat liver microsomes, read-out: Rat CLhep (in vitro hepatic clearance from microsomal CLint)
Procedure: as §1, §2, §3, §4, §5, §6

[3] = Intrinsic clearance in liver microsomes; type: in vitro ADME, mouse; details: for Mouse CLhep, % Hepatic blood flow: mouse liver microsomes; for CLhep predicted at 1 μM: mouse, liver microsomes, pH 7.4, mouse liver microsomes, read-out: Mouse CLhep (in vitro hepatic clearance from microsomal CLint)
Procedure: as §1, §2, §3, §4, §5, §6

[4] = In vivo IV pharmacokinetics, rat cassette; details: Sprague-Dawley, plasma, 0.2 mg/kg, male SD rats, 0.2 mpk IV; for Vd: read-out: Vss; for clearance: read-out: rat in vivo CLp
Procedure: In-life phase–Compounds were formulated in 12% ethanol, 48% PEG400, and 40% DMSO (v/v/v) at a concentration of 1 mg/mL and administered as a single 0.2 mg/kg IV dose (1 mL/kg) to male, Sprague–Dawley rats (n = 1; 342 g body weight) via injection into a surgically implanted jugular vein catheter. Blood samples were collected serially from a surgically implanted carotid artery catheter in each animal over multiple postadministration time points (0.033, 0.117, 0.25, 0.5, 1, 2, 4, 7, and 24 h) into chilled, K2EDTA anticoagulant-fortified tubes and immediately placed on wet ice. The blood samples were then centrifuged (1700 rcf, 5 min, 4 °C) in order to obtain plasma samples, which were stored at −80 °C until analysis by LC-MS/MS. VU6032735 was also dosed IV in C57Bl6 mice at 5 mg/kg IV to determine mouse PK. Formulation and experimental design were identical to those used for rats except that whole blood was used for analysis.
Plasma samples from the in-life phase of the study were thawed at ambient temperature (benchtop), and then, aliquots (20 μL per sample) were transferred to a 96-shallow-well (V-bottom) plate. Matrix-matched quality control (QC) samples and a standard curve of the compound (1 mg/mL DMSO stock solution) were prepared in blank rat plasma (K2EDTA-treated) via serial dilution and transferred (20 μL each) to the plate along with multiple blank plasma and tissue homogenate samples. Acetonitrile (120 μL) containing IS (10 nM carbamazepine) was added to each well of the plate to precipitate the protein. The plate was then centrifuged (4000 rcf, 5 min, ambient temperature), and the resulting supernatants (60 μL each) were transferred to a new 96-shallow-well (V-bottom) plate containing an equal volume (60 μL per well) of water (Milli-Q purified). The plate was then sealed for LC-MS/MS analysis.
Samples were analyzed via electrospray ionization (ESI) LC-MS/MS on an AB Sciex 4500 (Foster City, CA) triple-quadrupole instrument that was coupled with an Agilent 1290 Infinity Binary Pump and multisampler (Santa Clara, CA) and concentrations (ng/mL or ng/g) were determined using a matrix-matched 10-point standard curve and then converted to nM concentrations. Quantitation of compounds was performed via AB Sciex Multiquant software using the raw analyte:IS peak area ratios. The typical detection range was 0.5 ng/mL to ≥5000 ng/mL utilizing a quadratic equation regression with 1/x² weighting. Correction for dilution of all tissue samples was performed postquantitation. The corrections for dilution in the extraction buffer employed correction factors specific to each tissue weight.

Row | solubility kinetic (Kinetic solubility) [µM] | Human CLhep, % Hepatic blood flow [1] [%] | CLhep predicted at 1 μM [1] [L/h/kg] | Rat CLhep, % Hepatic blood flow [2] [%] | CLhep predicted at 1 μM [2] [L/h/kg] | Mouse CLhep, % Hepatic blood flow [3] [%] | CLhep predicted at 1 μM [3] [L/h/kg] | AUC [4] [µg·h/mL] | MRT [4] [h] | half-life [4] [h] | Vd [4] [L/kg] | clearance [4] [L/h/kg] | Compound
1 | < 0.85 | 82 | 1.03 | 72 | 3.03 | 95 | 5.15 | 0.0588 | 1.7 | 1.65 | 5.77 | 3.4 | Cc1cc(Cl)cc2sc(O[C@@H]3CCN(C(=O)CCCS(=O)(=O)c4cccc(Br)c4)C[C@@H]3F)nc12 [VU6047608]
2 | < 0.85 | 75 | 0.948 | 89 | 3.74 | 97 | 5.26 | 0.0452 | 2.36 | 2.91 | 10.5 | 4.43 | Cc1cc(Cl)cc2sc(O[C@H]3CCN(C(=O)CCCS(=O)(=O)c4cccc(Br)c4)C[C@@H]3F)nc12 [VU6047609]
3 | < 0.85 | 82 | 1.03 | 76 | 3.21 | 98 | 5.29 | 0.047 | 1.58 | 1.8 | 6.75 | 4.26 | Cc1cc(Cl)cc2sc(O[C@@H]3CCN(C(=O)CCCS(=O)(=O)c4cccc(Br)c4)C[C@H]3F)nc12 [VU6047607]

Row | Compound | solubility kinetic (Kinetic solubility) [µM] | Human CLhep, % Hepatic blood flow [1] [%] | CLhep predicted at 1 μM [1] [L/h/kg] | Rat CLhep, % Hepatic blood flow [2] [%] | CLhep predicted at 1 μM [2] [L/h/kg] | Mouse CLhep, % Hepatic blood flow [3] [%] | CLhep predicted at 1 μM [3] [L/h/kg] | AUC [4] [µg·h/mL] | MRT [4] [h] | half-life [4] [h] | Vd [4] [L/kg] | clearance [4] [L/h/kg]
4 | Cc1cc(Cl)cc2sc(O[C@H]3CCN(C(=O)CCCS(=O)(=O)c4cccc(Br)c4)C[C@H]3F)nc12 [VU6047606] | < 0.85 | 74 | > 0.9 | 71 | > 2.76 | 93 | > 3.6 | 0.0831 | 2.09 | 1.96 | 5.03 | 2.41
5 | O=C(c1ccc(OCc2ccc(OC(F)(F)F)cc2)cc1)N1CCN(c2ccc(C(F)(F)F)cn2)CC1 [VU6032735] | < 0.95 | 23 | 0.288 | 23 | 0.972 | 56 | 3.01 | 0.114 | 2.66 | 2.19 | 4.69 | 1.76
